Series [1] has as its system patients following major abdominal surgery. The series is described as follows: M6G022 study: analgesic efficacy and tolerability of M6G and morphine following major abdominal surgery. The procedure:
Pain relief, nausea and emesis were recorded for 24 to 48 hours after start of the patient controlled analgesia.
The study site personnel (with the exception of the pharmacy); representatives of the sponsoring company; and the organisation involved in monitoring, data management, or other aspects of the study were blinded to the study treatment. The use of midazolam, temazepam, zopiclone or other short-acting pre-operative anxiolytics was allowed. All patients received a standardised general anaesthetic consisting of propofol induction, with either isoflurane or sevoflurane maintenance. These inhalational agents are associated with a similar risk of PONV. Nitrous oxide was not allowed because of its emetic effects, and the risk of an imbalance in its use. An initial bolus of 1-3 μg/kg of fentanyl or 0.1-0.3 μg/kg of sufentanyl followed by further doses as required, was used for pre- and peri-operative analgesia. Post-operative analgesia was provided by the study drug.
The investigator could administer up to 5 ml of PCA study drug, on no more than two occasions in each 24 hour post-operative period, as rescue medication if the patient was in uncontrolled pain. […] The patients stayed on PCA for a minimum of 24 hours following surgery, but could continue up to 48 hours if clinically indicated.
No prophylactic antiemetic was given, although iv ondansetron (4 mg/2 ml) was available if the patient experienced severe nausea, or immediately following emesis. If this was ineffective further doses of ondansetron; or other agents such as cyclizine, prochlorperazine or perphenazine; were allowed.
Pain intensity at rest was assessed by the patients using the VRS-11 scale at baseline, 15, 30 and 45 minutes and 1, 2, 4, 6, 9, 12, 15, 18, 21 and 24 hours after the start of PCA. A numerical scale was chosen because of the practical difficulty for post-operative patients of completing a visual analogue scale. If the patient remained on PCA after 24 hours, the pain scores were recorded every 8 hours up to 48 hours. In addition, at the end of the study the patients and observers were asked to assess the acceptability of their pain relief over the entire study using a 5 point rating global scale ranging from very poor (1) to excellent (5). […] The total consumption of study drugs was calculated.
Emesis risk factors of female gender; history of motion sickness or PONV; or smoking status were recorded at screening. Post-operative nausea was assessed by the patient using a 4 point ordinal scale (none, mild, moderate, severe) and occurrence of vomiting or dry retching recorded (yes/no; and if yes, the number of episodes) pre-operatively (Day −1), at baseline, and at 1, 2, 4, 6, 9, 12, 15, 18, 21, 24, 32, 40 and 48 hours after administration of the test analgesic. Nausea and vomiting were also combined in a single scoring system (postoperative nausea & vomiting, PONV), with an episode of vomiting or dry retching being scored as a 3 (severe) on the nausea scale.
Sedation was assessed using a combination of a binary question (sleepy, yes or no) and a 3 point ordinal scale (mild, moderate, severe) if the patient was sedated. All adverse events were recorded, along with concomitant medication use, with particular attention being paid to the use of anti-emetics.
The Intention to Treat (ITT) set of patients comprised all those who had been exposed to study medication at least once. This analysis set was the basis for the main efficacy and all safety and demographic analyses. Data were double entered using interactive verification into a CLINTRIAL database (Version 3.3.3, Phase Forward, Waltham, Mass., USA), and analysed using SAS (version 8.2, SAS Institute Inc., Cary, N.C., USA).

Series [2] has as its system patients with pain treatment after surgery. In words: Meta analysis of four clinical studies with M6G pain treatment after surgery. The text has this: The four studies M6G001, M6G012, M6G015 and M6G022 are described in the following.
The following variables were included in the meta analysis:
Nausea (none, mild, moderate, severe)
Sedation (none, mild, moderate, severe)
Pain (none, mild, moderate, severe)

Each structure is given as a SMILES string.

Regarding `CN1CC[C@]23c4c5ccc(O)c4O[C@H]2[C@@H](O)C=C[C@H]3[C@H]1C5` [Morphine, morphine], the “mean totals of PCA demands” value in series [1] (4-48 h) worked out at 93.9; in series [1] (early post-operative period (up to 4 hours)), 28.8. Also, the “patients with sedation score recorded as severe” value in series [1] (baseline) turned out to be 28.5%. In addition, the patients sedated in series [1] (baseline (when given control of the PCA button)) was 88.0%. In addition, the “dose required to achieve comfort initially” value in series [1] (loading and recovery doses before PCA) amounted to 14.4 mg/70 kg. Also, the pain-free time in series [2] (during first 24 hours) fell in the range of 9.0 to 10.9 h. Also, the “patients with moderate to severe sedation” value in series [2] (human, in vivo, intravenous) was determined as 81.4%. In addition, the figures for the “patients with moderate to severe pain” value in series [2] (time window 0 to 6 hours) and in series [2] (time window 6-24 hours) were 54.2% and 34.0%, respectively. For the same molecule, the “patients with moderate to severe nausea” value in series [2] (worst assessment) was found to be 32.8%. This molecule returned a patients with vomiting in series [2] (worst assessment) of 36.5%.
